In the supplement of paper PMC9938120:

Assays:
Test in all cases: drug sensitivity score (DSS3, normalised partial AUC of % inhibition dose-response) (DSS (score)); higher = more sensitive (stronger inhibition of viability); extreme values may be limits of the assay
[1] = system: FMOC02_1 (patient-derived low-grade serous ovarian cancer cells); conditions: 72 h; library: FO5A; assay format: 2D, 384-well, CellTiter-Glo
Procedure, shortened: (§1)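 On 384-well flat clear-bottom plates carrying compounds at five concentrations across a 10,000-fold range, patient-derived ovarian cancer cells below passage 10 were incubated for 72 h at 37 °C with 5% CO2. CellTiter-Glo readout of viability was processed in Breeze. A higher drug sensitivity score, defined as the partial area under the percent-inhibition dose-response curve divided by the log of the upper asymptote, means greater sensitivity.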

[2] = system: FMOC02_2 (patient-derived low-grade serous ovarian cancer cells); conditions: 72 h; library: FO5A; assay format: 2D, 384-well, CellTiter-Glo
Procedure, shortened: as §1

[3] = system: FMOC02_3 (patient-derived low-grade serous ovarian cancer cells); conditions: 72 h; library: FO5A; assay format: 2D, 384-well, CellTiter-Glo
Procedure, shortened: as §1

[4] = system: FMOC03 (patient-derived mucinous ovarian cancer cells); conditions: 72 h; library: FO5A; assay format: 2D, 384-well, CellTiter-Glo
Procedure, shortened: as §1

[5] = system: FMOC04 (patient-derived high-grade serous ovarian cancer cells); conditions: 72 h; library: FO5A; assay format: 2D, 384-well, CellTiter-Glo
Procedure, shortened: as §1

[6] = system: FMOC06 (patient-derived mucinous ovarian cancer cells); conditions: 72 h; library: FO5A; assay format: 2D, 384-well, CellTiter-Glo
Procedure, shortened: as §1

[7] = system: FMOC09 (patient-derived high-grade serous ovarian cancer cells); conditions: 72 h; library: FO5A; assay format: 2D, 384-well, CellTiter-Glo
Procedure, shortened: as §1

[8] = system: FMOC11 (patient-derived high-grade serous ovarian cancer cells); conditions: 72 h; library: FO5A; assay format: 2D, 384-well, CellTiter-Glo
Procedure, shortened: as §1

[9] = system: FMOC14 (patient-derived high-grade serous ovarian cancer cells); conditions: 72 h; library: FO5A; assay format: 2D, 384-well, CellTiter-Glo
Procedure, shortened: as §1

[10] = system: FMOC17 (patient-derived low-grade serous ovarian cancer cells); conditions: 72 h; library: FO5A; assay format: 2D, 384-well, CellTiter-Glo
Procedure, shortened: as §1

[11] = system: FMOC22 (patient-derived mucinous ovarian cancer cells); conditions: 72 h; library: FO5A; assay format: 2D, 384-well, CellTiter-Glo
Procedure, shortened: as §1

[12] = system: FMOC24 (patient-derived high-grade serous ovarian cancer cells); conditions: 72 h; library: FO5A; assay format: 2D, 384-well, CellTiter-Glo
Procedure, shortened: as §1

[13] = system: FMOC25_1 (patient-derived low-grade serous ovarian cancer cells); conditions: 72 h; library: FO4B; assay format: 2D, 384-well, CellTiter-Glo
Procedure, shortened: as §1

[14] = system: FMOC25_2 (patient-derived low-grade serous ovarian cancer cells); conditions: 72 h; library: FO5A; assay format: 2D, 384-well, CellTiter-Glo
Procedure, shortened: as §1

[15] = system: FMOC27 (patient-derived low-grade serous ovarian cancer cells); conditions: 72 h; library: FO5A; assay format: 2D, 384-well, CellTiter-Glo
Procedure, shortened: as §1

[16] = system: FMOC28 (patient-derived low-grade serous ovarian cancer cells); conditions: 72 h; library: FO5A; assay format: 2D, 384-well, CellTiter-Glo
Procedure, shortened: as §1

Row | Structure (SMILES) | drug sensitivity score [1] | drug sensitivity score [2] | drug sensitivity score [3] | drug sensitivity score [4] | drug sensitivity score [5] | drug sensitivity score [6] | drug sensitivity score [7] | drug sensitivity score [8] | drug sensitivity score [9] | drug sensitivity score [10] | drug sensitivity score [11] | drug sensitivity score [12] | drug sensitivity score [13] | drug sensitivity score [14] | drug sensitivity score [15] | drug sensitivity score [16]
1 | Nc1cc(F)ccc1NC(=O)/C=C/c1cnn(C/C=C/c2ccccc2)c1 [RGFP966] | 3.1 | 2.9 | 3.5 | 2.9 | 0.6 | 2 | 0 | 3.2 | 1.9 | 0.9 | 1.4 | 2.9 | 0 | 2.5 | 0.6 | 4.6
2 | Cc1cnc(NC(=O)Nc2cc(Br)c(C)cc2OC[C@@H]2CNCCO2)cn1 [Rabusertib] | 2.2 | 0 | 0.8 | 0 | 1.7 | 0.2 | 0 | 2 | 3.8 | 1.1 | 0 | 3.6 | 1 | 2 | 0 | 0
3 | CC(C)(C)Cn1c(N)nc2ccc(-c3[nH]c(C(C)(C)C)nc3-c3ccc(F)cc3)nc21 [Ralimetinib] | 6.6 | 4.3 | 3.4 | 2.7 | 1.05 | 3.1 | 1.9 | 6.5 | 2.2 | 4.4 | 0.4 | 1.95 | 1.1 | 3.4 | 3.2 | 1.1
4 | O=C(c1ccc(OCCN2CCCCC2)cc1)c1c(-c2ccc(O)cc2)sc2cc(O)ccc12 [Raloxifene] | 5.5 | 5.8 | 4.5 | 0.7 | 1.95 | 4.5 | 0.7 | 2.9 | 2.6 | 1.8 | 1.2 | 8.45 | 1.7 | 3.7 | 0.2 | 0
5 | CNC(=O)c1cc(Oc2ccc(NC(=O)Nc3ccc(Cl)c(C(F)(F)F)c3)c(F)c2)ccn1 [Regorafenib] | 5.2 | 2 | 2.6 | 3.7 | 0 | 2.3 | 1.3 | 2.6 | 2.6 | 1.9 | 4 | 1.9 | 0.3 | 0.3 | 0.8 | 2.9
6 | CN(C)C(=O)c1cc2cnc(Nc3ccc(N4CCNCC4)cn3)nc2n1C1CCCC1 [Ribociclib] | 3.1 | 1.8 | 4.4 | 0.5 | 0.05 | 0.6 | 0 | 0 | 0 | 0.3 | 0 | 1.8 | 0 | 0.8 | 0.6 | 1.7
7 | O=C(CCCCCCNC(=O)c1cnc(N(c2ccccc2)c2ccccc2)nc1)NO [Rocilinostat] | 4.9 | 3 | 5.2 | 5.1 | 3.2 | 3.5 | 0.8 | 4.3 | 4.5 | 0.7 | 4.3 | 5.4 | 2.4 | 6.7 | 4.8 | 0.9
8 | CNCc1ccc(-c2[nH]c3cc(F)cc4c3c2CCNC4=O)cc1 [Rucaparib] | 2.1 | 2.1 | 3.1 | 0 | 0 | 0 | 0 | 0 | 0.3 | 3.6 | 0 | 12.9 | 0.5 | 2.4 | 1.7 | 1.9
9 | N#CC[C@H](C1CCCC1)n1cc(-c2ncnc3[nH]ccc23)cn1 [Ruxolitinib] | 0.5 | 0.3 | 0 | 0 | 0 | 0 | 0 | 0 | 0 | 0 | 0 | 1.6 | 0 | 0 | 0 | 0
10 | CC(C)N(CCCNC(=O)Nc1ccc(C(C)(C)C)cc1)C[C@H]1O[C@@H](n2cc(Br)c3c(N)ncnc32)[C@H](O)[C@@H]1O [SGC0946] | 1.2 | 2.8 | 0.9 | 0.1 | 0.95 | 1.4 | 0 | 0.6 | 0 | 2 | 0.1 | 3.95 | 0 | 2.5 | 1.8 | 3.3
11 | COc1ccc(CCc2nc3cc(-c4c(C)noc4C)ccc3n2C[C@H](C)N2CCOCC2)cc1Cl [SGC-CBP30] | 4.5 | 3.3 | 2 | 2.8 | 1.3 | 4.6 | 2.5 | 4.6 | 1 | 1.4 | 2.9 | 5.6 | 0.8 | 6.1 | 3.1 | 2.4
12 | CC[C@H](CO)Nc1nc(NCc2ccccc2)c2ncn(C(C)C)c2n1 [Seliciclib] | 4.1 | 4.3 | 3.5 | 1.5 | 0.1 | 0.1 | 0 | 0 | 1.5 | 1.4 | 0 | 1.35 | 0.9 | 2.1 | 0 | 1.2
